Measurements as given in patent US20230277533A1, “THERAPEUTIC COMBINATIONS COMPRISING UBIQUITIN-SPECIFIC-PROCESSING PROTEASE 1 (USP1) INHIBITORS AND POLY (ADP-RIBOSE) POLYMERASE (PARP) INHIBITORS” (KSQ Therapeutics, Inc., priority 2020, published 2023).
Where two headings read alike, the source gives them in different places.

Legend:
Assay in all cases: Colony formation (CFU) assay
Assay type in all cases: cell-based
AN3CA = settings: Homo sapiens, AN3-CA, uterus
Protocol: (§1) In vitro experiments were conducted using the colony formation unit (CFU) assay on various cell lines. The CFU assay involved first establishing what cell plating density enabled the development of clearly interspersed colonies on a six-well plate when left to grow for around 14 days. […] Media was changed on day 8 containing appropriate concentrations of DMSO, USP1 inhibitor, Niraparib, or Olaparib. At or around day 14 when clearly interspersed colonies were visible in the DMSO treated wells, the cells were fixed and stained using 0.1% crystal violet in 10% ethanol for 20 minutes at room temperature. The plates were imaged then the amount of crystal violet stain in each well was quantified by extracting the crystal violet into 10% acetic acid and the absorbance measured at 565 nm.
(§2) IC50 values were calculated by fitting a two-parameter hill equation to the dose-response measurements. Non-linear-least-squares was used to find parameter values that minimize the squared error of the model fit to measured dose response. Non-linear-least-squares estimation was performed using the minpack.lm R package, version 1.2-1. Bliss synergy scores were calculated using the synergyfinder R package version 1.6.1.

KYSE140 = settings: Homo sapiens, KYSE-140; KYSE140, esophagus
Protocol: as §1, §2

HCC202 = settings: HCC202, breast
Protocol: as §1, §2

HBCx8 = settings: HBCx8, breast
Protocol: as §1, §2

KURAMOCHI = settings: ovary
Protocol: as §1, §2

NCIH1838 = settings: Homo sapiens, NCI-H1838; NCIH1838, lung
Protocol: as §1, §2

RCM1 = settings: Homo sapiens, RCM-1; RCM1, colon
Protocol: as §1, §2

143B = settings: Homo sapiens, bone
Protocol: as §1, §2

HSC3 = settings: Homo sapiens, HSC-3; HSC3, head and neck
Protocol: as §1, §2

ES2 = settings: Homo sapiens, ES-2; ES2, ovary
Protocol: as §1, §2

SNU668 = settings: SNU668, stomach
Protocol: as §1, §2

CCK81 = settings: CCK81, colon
Protocol: as §1, §2

PECAPJ49 = settings: PECAPJ49, head and neck
Protocol: as §1, §2

59M = settings: ovary
Protocol: as §1, §2

SNU407 = settings: SNU-407; SNU407, colon
Protocol: as §1, §2

U2OS = settings: Homo sapiens, bone
Protocol: as §1, §2

U251MG = settings: Homo sapiens, U-251, nervous system
Protocol: as §1, §2

HBCx6 = settings: HBCx6, breast
Protocol: as §1, §2

YKG1 = settings: Homo sapiens, YKG-1; YKG1, nervous system
Protocol: as §1, §2

JHH7 = settings: JHH7, liver
Protocol: as §1, §2

RKO = settings: Homo sapiens, colon
Protocol: as §1, §2

LU99 = settings: Homo sapiens, Lu-99; LU99, lung
Protocol: as §1, §2

TCCSUP = settings: Homo sapiens, TCC-SUP, bladder
Protocol: as §1, §2

HOS = settings: Homo sapiens, bone
Protocol: as §1, §2

SKMEL24 = settings: Homo sapiens, SK-MEL-24; SKMEL24, skin
Protocol: as §1, §2

HS934T = settings: melanoma
Protocol: as §1, §2

22RV1 = settings: Homo sapiens; 22RV1, prostate
Protocol: as §1, §2

SNU213 = settings: SNU213, pancreas
Protocol: as §1, §2

LUDLU1 = settings: LUDLU-1; LUDLU1, lung
Protocol: as §1, §2

NOS1 = settings: NOS1, bone
Protocol: as §1, §2

CFPAC1 = settings: Homo sapiens, CFPAC-1; CFPAC1, pancreas
Protocol: as §1, §2

PK45H = settings: pancreas
Protocol: as §1, §2

NCIH1648 = settings: Homo sapiens, NCI-H1648; NCIH1648, lung
Protocol: as §1, §2

SUM149PT = settings: Homo sapiens, breast
Protocol: as §1, §2

HT115 = system: HT115
Protocol: as §1, §2

CAPAN2 = settings: Homo sapiens, Capan-2; CAPAN2, pancreas
Protocol: as §1, §2

HSC2 = settings: Homo sapiens, HSC-2; HSC2, head and neck
Protocol: as §1, §2

BICR78 = settings: BICR78, head and neck
Protocol: as §1, §2

HBCx3 = settings: HBCx3, breast
Protocol: as §1, §2

| Structure (SMILES) | IC50 (AN3CA) | IC50 (KYSE140) | IC50 (HCC202) | IC50 (HBCx8) | IC50 (KURAMOCHI) | IC50 (NCIH1838) | IC50 (RCM1) | IC50 (143B) | IC50 (HSC3) | IC50 (ES2) | IC50 (SNU668) | IC50 (CCK81) | IC50 (PECAPJ49) | IC50 (59M) | IC50 (SNU407) | IC50 (U2OS) | IC50 (U251MG) | IC50 (HBCx6) | IC50 (YKG1) | IC50 (JHH7) | other results |
| --- | --- | --- | --- | --- | --- | --- | --- | --- | --- | --- | --- | --- | --- | --- | --- | --- | --- | --- | --- | --- | --- |
| COc1ncnc(C2CC2)c1-c1ncc2cnn(Cc3ccc(-c4nc(C(F)(F)F)cn4C)cc3)c2n1 [Formula II, 6-(4-cyclopropyl-6-methoxypyrimidin-5-yl)-1-(4-(1-methyl-4-(trifluoromethyl)-1H-imidazol-2-yl)benzyl)-1H-pyrazolo[3,4-d]pyrimidine] | > 300 nM | > 300 nM | > 300 nM | > 300 nM | > 300 nM | > 300 nM | > 300 nM | > 300 nM | > 300 nM | 27.5 nM | > 300 nM | > 300 nM | > 300 nM | 34.9 nM | > 300 nM | > 300 nM | > 300 nM | > 300 nM | > 300 nM | > 300 nM | IC50 (RKO): > 300 nM; IC50 (LU99): 35.4 nM; IC50 (TCCSUP): > 300 nM; IC50 (HOS): > 300 nM; IC50 (SKMEL24): > 300 nM; IC50 (HS934T): > 300 nM; IC50 (22RV1): > 300 nM; IC50 (SNU213): > 300 nM; IC50 (LUDLU1): > 300 nM; IC50 (NOS1): > 300 nM; IC50 (CFPAC1): > 300 nM; IC50 (PK45H): 294 nM; IC50 (NCIH1648): > 300 nM; IC50 (SUM149PT): > 300 nM; IC50 (HT115; HT115, colon, read-out: IC50): 150 nM; IC50 (CAPAN2): > 300 nM; IC50 (HSC2): > 300 nM; IC50 (BICR78): > 300 nM; IC50 (HBCx3): > 300 nM |
| NC(=O)c1cccc2cn(-c3ccc([C@@H]4CCCNC4)cc3)nc12 [Niraparib, niraparib, reference compound] | 101 nM | > 300 nM | 103 nM | 107 nM | > 300 nM | > 300 nM | > 300 nM | > 300 nM | > 300 nM | > 300 nM | > 300 nM | > 300 nM | > 300 nM | 63.4 nM | 72.8 nM | > 300 nM | > 300 nM | 30.4 nM | > 300 nM | > 300 nM | IC50 (RKO): > 300 nM; IC50 (LU99): 88.6 nM; IC50 (TCCSUP): > 300 nM; IC50 (HOS): > 300 nM; IC50 (SKMEL24): > 300 nM; IC50 (HS934T): > 300 nM; IC50 (22RV1): > 300 nM; IC50 (SNU213): > 300 nM; IC50 (LUDLU1): > 300 nM; IC50 (NOS1): > 300 nM; IC50 (CFPAC1): > 300 nM; IC50 (PK45H): > 300 nM; IC50 (NCIH1648): > 300 nM; IC50 (SUM149PT): 135 nM; IC50 (HT115; HT115): 15.6 nM; IC50 (CAPAN2): > 300 nM; IC50 (HSC2): > 300 nM; IC50 (BICR78): > 300 nM; IC50 (HBCx3): 20.8 nM |
